Measured values published in US20090253687A1, “Fused Heterocyclic Compounds and Their Use as Mineralocorticoid Receptor Ligands” (priority 2005, published 2009).

Target: T1, Human Mineralocorticoid Receptor (hMR) (Homo sapiens, UniProt P08235)
T1 construct: Full-length cDNA was constructed from two fragments of hMR cDNA amplified separately; expressed in transfected cells; host or cells: FreeStyle 293 cells transiently transfected with pMCMVneo-hMR; supernatant of the freeze-thaw lysate after ultracentrifugation
T1 sequence (P08235 1-984): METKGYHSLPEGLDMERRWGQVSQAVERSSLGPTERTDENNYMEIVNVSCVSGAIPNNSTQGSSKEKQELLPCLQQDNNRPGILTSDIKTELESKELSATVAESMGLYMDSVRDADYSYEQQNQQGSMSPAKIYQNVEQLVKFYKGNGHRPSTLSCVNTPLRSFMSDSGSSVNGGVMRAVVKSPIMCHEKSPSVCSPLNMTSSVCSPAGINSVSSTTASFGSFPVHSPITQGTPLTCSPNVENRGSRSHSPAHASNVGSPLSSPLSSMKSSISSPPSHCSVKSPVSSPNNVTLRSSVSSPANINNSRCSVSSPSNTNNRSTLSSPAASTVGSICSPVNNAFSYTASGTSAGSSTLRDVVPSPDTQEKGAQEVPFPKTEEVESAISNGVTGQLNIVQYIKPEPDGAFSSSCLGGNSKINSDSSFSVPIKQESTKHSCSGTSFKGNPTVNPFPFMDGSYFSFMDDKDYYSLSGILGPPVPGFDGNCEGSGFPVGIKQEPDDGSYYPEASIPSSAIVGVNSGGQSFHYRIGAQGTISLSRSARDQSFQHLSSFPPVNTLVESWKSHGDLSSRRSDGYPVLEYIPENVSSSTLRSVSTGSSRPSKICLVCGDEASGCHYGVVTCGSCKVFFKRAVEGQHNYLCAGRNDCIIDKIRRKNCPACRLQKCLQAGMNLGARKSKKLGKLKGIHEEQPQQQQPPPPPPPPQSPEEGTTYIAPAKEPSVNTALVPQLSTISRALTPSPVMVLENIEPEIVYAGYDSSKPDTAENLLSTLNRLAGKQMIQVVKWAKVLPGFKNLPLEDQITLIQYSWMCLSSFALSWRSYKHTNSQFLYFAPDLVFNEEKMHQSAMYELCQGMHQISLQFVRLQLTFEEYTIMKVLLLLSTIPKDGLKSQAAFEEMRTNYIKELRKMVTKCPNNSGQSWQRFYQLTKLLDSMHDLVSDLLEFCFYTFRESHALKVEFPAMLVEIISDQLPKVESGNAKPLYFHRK
Assay: Inhibition of binding of [3H]-aldosterone to hMR (lysate of FreeStyle 293 cells expressing hMR)
Details: compound at 10^−5 M; 10 nM [3H]-aldosterone; hMR lysate 1.0 mg/ml; 16 hr at 4° C.; read-out: Inhibition rate (at 10^−5 M)
Method: The following procedures described in this Example were carried out according to the methods described in Molecular Cloning—Cold Spring Harbor Laboratory (1989) or protocols specified by manufacturers. (1) Cloning of Human Mineralocorticoid Receptor (hMR) cDNA hMR cDNA was amplified by polymerase chain reaction (PCR) from human kidney cDNA library. Full-length cDNA was constructed from two fragments of hMR cDNA amplified separately. The primers were designed referring to the nucleotide sequence of hMR cDNA reported by Arriza et. al (Science 1987; 237: 268-275). The PCR reactions were carried out using Pyrobest® DNA polymerase (Takara). The PCR products were electrophoresed in agarose gel, and 1.7 kb (region (i)) and 1.5 kb (region (ii)) DNA fragments were recovered. Each DNA fragment was inserted into pCR®4Blunt-TOPO® vector (Invitrogen). The resulting plasmids thus obtained were designated as pB-hMR (i) and pB-hMR (ii). To obtain the full-length hMR cDNA, pB-hMR (i) was digested with XhoI and PvuI, and pB-hMR (ii) was digested with PvuI and KpnI, respectively, and the two cDNA fragments were ligated into pBlueScript®IISK+ vector (Stratagene). The resulting plasmid thus obtained was designated as pB-hMR. (2) Construction of hMR Expression Plasmid pMCMVneo (described in WO03/099793) was digested with XhoI and KpnI, and 5.6 kb fragment was ligated with 2.9 kb hMR cDNA fragment obtained by digestion of pB-hMR (described in above (1)) with XhoI and KpnI. The plasmid thus obtained was designated as pMCMVneo-hMR. (3) Expression of hMR in FreeStyle 293 Cells and Preparation of Cell Lysate FreeStyle 293 cells were inoculated at 1×10^8 cells in 93 ml FreeStyle™ 293 Expression Medium (Invitrogen) in a 500 ml Erlenmeyer flask and cultured at 37° C. under 8% CO2 for 1 hr. The cells were treated with 6.7 ml of the transfection mixture containing 100 μg of pMCMVneo-hMR obtained in above (2) and 133 μl of FreeStyle™ 293 Transfection Reagent (Invitrogen). The transfected cells were cultivated for 48 hr at 37° C. in 8% CO2 atmosphere. The cultivated cells were centrifuged and washed with TEG buffer (10 mM Tris-HCl (pH 7.2), 50 mM EDTA, 10% glycerol), and resuspended in 10 ml TEGM buffer (10 mM Tris-HCl (pH 7.2), 1 mM EDTA, 10% glycerol, 1 mM β-mercaptoethanol, 10 mM sodium molybdate, 1 mM dithiothreitol, 2 tablets/100 ml of protease inhibitor cocktail tablets (Roche)). The cell suspension was frozen with liquid nitrogen and thawed on ice, and ultra-centrifuged at 225,000×g for 20 min at 4° C. The supernatant fraction including hMR (hMR lysate) was collected and stored at −80° C. (4) Measurement of Inhibition Activity Against Binding of hMR and Aldosterone [^3H]-Aldosterone (Amersham Biosciences) as ligand was added at 10 nM to the reaction mixture including test compound at various concentration and hMR lysate (1.0 mg/ml) obtained in above (3) and mixture was filled up to 50.5 μl with TEGM buffer. The reaction mixture was incubated for 16 hr at 4° C. and 35 μl of dextran/gelatin coated charcoal suspension (5% charcoal, 0.5% dextran T-70 (Amersham Biosciences), 0.1% gelatin (SIGMA), 10 mM Tris HCl (pH 7.2), 1 mM EDTA) was added thereto to separate bound and free radioactive aldosterone. The mixture containing charcoal was incubated for 10 min at 4° C. and centrifuged at 910×g for 10 min at 4° C. Radioactivity in 30 μl of the supernatant was measured by TopCount™ (Packard). For the determination of nonspecific binding, cold Aldosterone instead of drug was added to reaction mixture at 100 μM. Specific binding was determined by subtracting nonspecific binding from total binding.

Row | inhibition at 10 µM [%] | Compound
1 | ≥ 70 | O=C1COc2ccc(-c3cc(C(F)(F)F)nn3-c3ccc(F)cc3)cc2N1 [Example 71, 6-(1-(4-Fluorophenyl)-3-(trifluoromethyl)-1H-pyrazol-5-yl)-2H-benzo[b][1,4]oxazin-3(4H)-one]
2 | ≥ 70 | O=C1COc2ccc(-c3cc(C(F)(F)F)nn3-c3ccc(Cl)cc3)cc2N1 [Example 74, 6-(1-(4-Chlorophenyl)-3-(trifluoromethyl)-1H-pyrazol-5-yl)-2H-benzo[b][1,4]oxazin-3(4H)-one]
3 | ≥ 70 | Cc1ccccc1-n1nc(C(F)(F)F)cc1-c1ccc2c(c1)NC(=O)CO2 [Example 82, 6-(1-o-tolyl-3-(trifluoromethyl)-1H-pyrazol-5-yl)-2H-benzo[b][1,4]oxazin-3(4H)-one]
4 | ≥ 70 | Cc1cc(Cl)ccc1-n1nc(C(F)(F)F)cc1-c1ccc2c(c1)NC(=O)CO2 [Example 86, 6-(1-(4-chloro-2-methylphenyl)-3-(trifluoromethyl)-1H-pyrazol-5-yl)-2H-benzo[b][1,4]oxazin-3(4H)-one]
5 | ≥ 70 | Cc1ccc(C)c(-n2nc(C(F)(F)F)cc2-c2ccc3c(c2)NC(=O)CO3)c1 [Example 93, 6-(1-(2,5-dimethylphenyl)-3-(trifluoromethyl)-1H-pyrazol-5-yl)-2H-benzo[b][1,4]oxazin-3(4H)-one]
6 | ≥ 70 | O=C1COc2ccc(-c3cc(C(F)(F)F)nn3-c3ccccc3)cc2N1 [Example 96, 6-(1-Phenyl-3-(trifluoromethyl)-1H-pyrazol-5-yl)-2H-benzo[b][1,4]oxazin-3(4H)-one]
7 | ≥ 70 | Cc1cc(F)ccc1-n1nc(C(F)(F)F)cc1-c1ccc2c(c1)NC(=O)CO2 [Example 107, 6-(1-(4-fluoro-2-methylphenyl)-3-(trifluoromethyl)-1H-pyrazol-5-yl)-2H-benzo[b][1,4]oxazin-3(4H)-one]
8 | ≥ 70 | Cc1cc(F)ccc1-n1nc(C(F)(F)F)cc1-c1cc(F)c2c(c1)NC(=O)CO2 [Example 108, 8-fluoro-6-(1-(4-fluoro-2-methylphenyl)-3-(trifluoromethyl)-1H-pyrazol-5-yl)-2H-benzo[b][1,4]oxazin-3(4H)-one]

The next lines start with the compound.

Row | Compound | inhibition at 10 µM [%]
9 | CS(=O)(=O)N1CC(c2ccccc2)C(c2ccc3c(c2)NC(=O)CO3)=N1 (stereo not drawn) [Example 59, 6-(1-(Methylsulfonyl)-4-phenyl-4,5-dihydro-1H-pyrazol-3-yl)-2H-benzo[b][1,4]oxazin-3(4H)-one] | ≥ 70
10 | O=C1COc2ccc(C3=C(c4ccc(F)cc4)C(=O)N(c4ccccc4)C3=O)cc2N1 [Example 65, 3-(4-fluorophenyl)-4-(3-oxo-3,4-dihydro-2H-benzo[b][1,4]oxazin-6-yl)-1-phenyl-1H-pyrrole-2,5-dione] | ≥ 70
11 | O=C1COc2ccc(C3=C(c4ccc(F)cc4)C(=O)N(c4ccc(F)cc4)C3)cc2N1 [Example 70, 6-(1,4-Bis(4-fluorophenyl)-5-oxo-2,5-dihydro-1H-pyrrol-3-yl)-2H-benzo[b][1,4]oxazin-3(4H)-one] | ≥ 70
12 | O=C1COc2ccc(-c3cc(C(F)(F)C(F)(F)F)nn3-c3ccc(F)cc3)cc2N1 [Example 100, 6-(1-(4-Fluorophenyl)-3-(perfluoroethyl)-1H-pyrazol-5-yl)-2H-benzo[b][1,4]oxazin-3(4H)-one] | ≥ 70
13 | Cc1cc(F)ccc1-n1nc(C(F)(F)F)cc1-c1cc(C)c2c(c1)NC(=O)CO2 [Example 110, 6-(1-(4-fluoro-2-methylphenyl)-3-(trifluoromethyl)-1H-pyrazol-5-yl)-8-methyl-2H-benzo[b][1,4]oxazin-3(4H)-one] | ≥ 70
14 | O=C1COc2c(Cl)cc(C3=Cn4ccnc4SC3c3ccc(F)cc3)cc2N1 (stereo not drawn) [Example 118, 8-chloro-6-[7-(4-fluorophenyl)-7H-imidazo[2,1-b][1,3]thiazin-6-yl]-2H-1,4-benzoxazin-3(4H)-one] | ≥ 70
15 | N#Cc1ccc2c(c1)SC(c1ccccc1)C(c1ccc3c(c1)NC(=O)CO3)=C2 (stereo not drawn) [Example 130, 3-(3-oxo-3,4-dihydro-2H-1,4-benzoxazin-6-yl)-2-phenyl-2H-thiochromene-7-carbonitrile] | ≥ 70
16 | O=C1COc2ccc(C3=Cc4ccccc4SC3c3ccc(F)cc3)cc2N1 (stereo not drawn) [Example 158, 6-[2-(4-fluorophenyl)-2H-thiochromen-3-yl]-2H-1,4-benzoxazin-3(4H)-one] | ≥ 70
17 | Cc1cc(C2=Nn3cnnc3SC2c2ccc(F)cc2)cc2c1OCC(=O)N2 (stereo not drawn) [Example 185, 6-[7-(4-fluorophenyl)-7H-[1,2,4]triazolo[3,4-b][1,3,4]thiadiazin-6-yl]-8-methyl-2H-1,4-benzoxazin-3(4H)-one] | ≥ 70
18 | O=C1COc2c(F)cc(C3=Nn4cnnc4SC3c3ccc(F)cc3)cc2N1 (stereo not drawn) [Example 195, 8-fluoro-6-[7-(4-fluorophenyl)-7H-[1,2,4]triazolo[3,4-b][1,3,4]thiadiazin-6-yl]-2H-1,4-benzoxazin-3(4H)-one] | ≥ 70
19 | Cc1cc(F)ccc1-n1nc(C(F)(F)F)cc1-c1cc(C)c2c(n1)NC(=O)CO2 [Example 255, 6-[1-(4-fluoro-2-methylphenyl)-3-(trifluoromethyl)-1H-pyrazol-5-yl]-8-methyl-2H-pyrido[3,2-b][1,4]oxazin-3(4H)-one] | ≥ 70
20 | Cc1nn(C)c(-c2ccc3c(c2)NC(=O)CO3)c1-c1ccccc1 [Example 288, 6-(1,3-dimethyl-4-phenyl-1H-pyrazol-5-yl)-2H-benzo[b][1,4]oxazin-3(4H)-one] | ≥ 70
21 | Cc1cc(F)ccc1-n1nc(C(C)(F)F)cc1-c1cc(C)c2c(c1)NC(=O)CO2 [Example 310, 6-(3-(1,1-Difluoroethyl)-1-(4-fluoro-2-methylphenyl)-1H-pyrazol-5-yl)-8-methyl-2H-benzo[b][1,4]oxazin-3(4H)-one] | ≥ 70
